Reference: patent US11912650B2, “Bakuchiol derivatives, pharmaceutically acceptable salts thereof, and preparation method and use of the same” (priority 2020, dated 2024)
Values after ≈ are worked out from the molar mass of the structure shown. Like-named read-outs stand apart in the source and are kept apart here.

What was measured:
Gram-negative bacteria = assay: Antibacterial activity against Gram-negative bacteria (MIC summary); assay type: cell-based; conditions: 24 h; summary of tables 1 and 2
Protocol: (§1) Antibacterial activity assay. The antibacterial activities of all the compounds were determined according to a broth dilution method specified in Clinical and Laboratory Standards Institute (CLSI) guidelines. Bacterial cells were inoculated on a Mueller-Hinton agar (MHA) plate for overnight culture, and the concentration of the bacterial cells was adjusted to about 1×10^6 colony-forming units (CFU)/mL with phosphate buffered saline (PBS). First, a 1000 μg/mL stock solution (a final concentration of dimethyl sulfoxide (DMSO) was ≤2%) was prepared by dissolving a sample in DMSO/H2O. Then, the stock solution was diluted with Mueller-Hinton Broth (MHB) to an initial concentration of 100 μg/mL, and the sample solution (100 μL) was subjected to two-fold gradient dilution with MHB in a 96-well plate, to obtain 100 μg/mL to 0.78 μg/mL serial dilutions. Then, a bacterial suspension (100 μL) was added to each well of the 96-well plate and mixed with the test sample solution (100 μL). Among them, test systems for compounds 38, 44-45, 58-61 and 63-64 contained 0.05% of Tween 80. Finally, the 96-well plate was incubated at 37° C. for 24 hours. Absorbances at 600 nm at 0 and 24 h were measured. An minimum inhibitory concentration (MIC) value was defined as the lowest concentration where no visible bacterial growth occurred. All experiments were carried out in at least two duplicates, and biological repeatability could be achieved.

E. coli ATCC25922 = assay: Antibacterial activity assay (broth dilution MIC); assay type: cell-based; conditions: Escherichia coli, 37° C., 24 h, compounds 38, 44-45, 58-61, 63-64 with 0.05% Tween 80
Protocol: as §1

S. aureus ATCC29213 = assay: Antibacterial activity assay (broth dilution MIC); assay type: cell-based; conditions: Staphylococcus aureus, 37° C., 24 h, compounds 38, 44-45, 58-61, 63-64 with 0.05% Tween 80
Protocol: as §1

Gram-positive bacteria = assay: Antibacterial activity against Gram-positive bacteria (MIC summary); assay type: cell-based; conditions: 24 h, read-out: minimum inhibitory concentration (MIC) against Gram-positive bacteria
Protocol: as §1

MRSA NCTC10442 = assay: Antibacterial activity assay (broth dilution MIC); assay type: cell-based, methicillin-resistant Staphylococcus aureus; conditions: Staphylococcus aureus, 37° C., 24 h, compounds 38, 44-45, 58-61, 63-64 with 0.05% Tween 80
Protocol: as §1

MRSA N315 = assay: Antibacterial activity assay (broth dilution MIC); assay type: cell-based, methicillin-resistant Staphylococcus aureus; conditions: Staphylococcus aureus, 37° C., 24 h, compounds 38, 44-45, 58-61, 63-64 with 0.05% Tween 80
Protocol: as §1

Structure (SMILES)	MIC (Gram-negative bacteria) [µg/mL]	MIC (E. coli ATCC25922) [µg/mL]	MIC (S. aureus ATCC29213) [µg/mL]	MIC (Gram-positive bacteria; summary of tables 1 and 2) [µg/mL]	MIC (MRSA NCTC10442) [µg/mL]	MIC (MRSA N315) [µg/mL]	MIC (Gram-positive bacteria) [µg/mL]
C=C[C@@](C)(/C=C/c1ccc(OCCCCN(C)CCCN(C)C)cc1)CCC=C(C)C [Compound 26]	1.56 to 3.12 (≈ 3.66 to 7.32 µM)	3.12 (≈ 7.32 µM)	1.56 (≈ 3.66 µM)	0.39 to 3.12 (≈ 0.914 to 7.32 µM)	3.12 (≈ 7.32 µM)	1.56 (≈ 3.66 µM)	
C=C[C@@](C)(/C=C/c1ccc(OCCCCN(C)CCCN(C)CCCNC)cc1)CCC=C(C)C [Compound 27]	1.56 to 3.12 (≈ 3.22 to 6.46 µM)	1.56 (≈ 3.22 µM)	1.56 (≈ 3.22 µM)	0.39 to 3.12 (≈ 0.806 to 6.46 µM)	1.56 (≈ 3.22 µM)	0.78 (≈ 1.61 µM)	
C=C[C@](C)(/C=C/c1ccc(OCCCCNCCN(CCN)CCN)cc1)CCC=C(C)C [Compound 29]	1.56 to 3.12 (≈ 3.42 to 6.84 µM)	3.12 (≈ 6.84 µM)	0.78 (≈ 1.71 µM)	0.39 to 3.12 (≈ 0.854 to 6.84 µM)	0.78 (≈ 1.71 µM)	0.78 (≈ 1.71 µM)	
C=C[C@@](C)(/C=C/c1ccc(OCCCCN2CCCNCCNCCCNCC2)cc1)CCC=C(C)C [Compound 30]	1.56 to 3.12 (≈ 3.05 to 6.12 µM)	3.12 (≈ 6.12 µM)	0.78 (≈ 1.53 µM)	0.39 to 3.12 (≈ 0.763 to 6.12 µM)	0.78 (≈ 1.53 µM)	0.78 (≈ 1.53 µM)	
C=C[C@@](C)(/C=C/c1ccc(OCCCCN2CCNCCNCCNCCNCC2)cc1)CCC=C(C)C [Compound 31]		6.25 (≈ 11.9 µM)	1.56 (≈ 2.97 µM)	0.39 to 3.12 (≈ 0.742 to 5.94 µM)	1.56 (≈ 2.97 µM)	0.78 (≈ 1.48 µM)	
C=C[C@@](C)(/C=C/c1ccc(OCCCCNC(=N)N)cc1)CCC=C(C)C [Compound 35]		25 (≈ 67.6 µM)	3.12 (≈ 8.46 µM)	0.39 to 3.12 (≈ 1.06 to 8.46 µM)	3.12 (≈ 8.46 µM)	1.56 (≈ 4.22 µM)	
C=C[C@](C)(/C=C/c1ccc(OCC(=O)N[C@@H](CCCNC(=N)N)C(=O)OC)cc1)CCC=C(C)C [Compound 38]		6.25 (≈ 12.9 µM)	0.78 (≈ 1.61 µM)		0.78 (≈ 1.61 µM)	1.56 (≈ 3.22 µM)	0.39 to 3.12 (≈ 0.805 to 6.45 µM)
C=C[C@](C)(/C=C/c1ccc(OCC(=O)N[C@H](CCCNC(=N)N)C(N)=O)cc1)CCC=C(C)C [Compound 39]		12.5 (≈ 26.6 µM)	3.12 (≈ 6.65 µM)		3.12 (≈ 6.65 µM)	3.12 (≈ 6.65 µM)	0.39 to 3.12 (≈ 0.83 to 6.65 µM)
C=C[C@](C)(/C=C/c1ccc(OCC(=O)N[C@@H](Cc2c[nH]cn2)C(=O)OC)cc1)CCC=C(C)C [Compound 40]		> 100	6.25 (≈ 13.4 µM)		6.25 (≈ 13.4 µM)	6.25 (≈ 13.4 µM)	
C=C[C@](C)(/C=C/c1ccc(OCC(=O)N[C@@H](CCCNC(=N)N)C(=O)N[C@@H](CCCNC(=N)N)C(=O)OC)cc1)CCC=C(C)C [Compound 44]	1.56 to 3.12 (≈ 2.43 to 4.88 µM)	3.12 (≈ 4.88 µM)	0.78 (≈ 1.22 µM)		1.56 (≈ 2.43 µM)	0.78 (≈ 1.22 µM)	0.39 to 3.12 (≈ 0.609 to 4.88 µM)
C=C[C@](C)(/C=C/c1ccc(OCC(=O)N[C@@H](CCCNC(=N)N)C(=O)N[C@@H](CCCNC(=N)N)C(=O)N[C@@H](CCCNC(=N)N)C(=O)OC)cc1)CCC=C(C)C [Compound 45]		6.25 (≈ 7.84 µM)	0.39 (≈ 0.489 µM)		1.56 (≈ 1.96 µM)	0.78 (≈ 0.979 µM)	0.39 to 3.12 (≈ 0.489 to 3.92 µM)
C=C[C@@](C)(/C=C/c1ccc(OCC(=O)N[C@@H](CCCCN)C(=O)OC)cc1)CCC=C(C)C [Compound 47]		12.5 (≈ 27.4 µM)	6.25 (≈ 13.7 µM)		6.25 (≈ 13.7 µM)	6.25 (≈ 13.7 µM)	
C=C[C@](C)(/C=C/c1ccc(OCC(=O)N[C@@H](CCCNC(=N)N)C(=O)N[C@@H](CCCNC(=N)N)C(N)=O)cc1)CCC=C(C)C [Compound 49]		12.5 (≈ 20 µM)	1.56 (≈ 2.49 µM)		1.56 (≈ 2.49 µM)	3.12 (≈ 4.99 µM)	0.39 to 3.12 (≈ 0.623 to 4.99 µM)
C=C[C@@](C)(/C=C\c1ccc(OCC(=O)N[C@@H](CCCNC(=N)N)C(=O)N[C@@H](Cc2c[nH]cn2)C(=O)OC)cc1)CCC=C(C)C [Compound 50]		12.5 (≈ 20.1 µM)	6.25 (≈ 10.1 µM)		6.25 (≈ 10.1 µM)	6.25 (≈ 10.1 µM)	
C=C[C@](C)(/C=C/c1ccc(OCC(=O)N[C@@H](CCCNC(=N)N)C(=O)NCCCN(CC)CC)cc1)CCC=C(C)C [Compound 52]		25 (≈ 42.9 µM)	1.56 (≈ 2.68 µM)	0.39 to 3.12 (≈ 0.669 to 5.36 µM)	0.78 (≈ 1.34 µM)	0.78 (≈ 1.34 µM)	
C=C[C@](C)(/C=C/c1ccc(OCC(=O)N[C@H](CCCNC(=N)N)C(=O)N2CCN(c3ccc(N4CC(CNC(C)=O)OC4=O)cc3F)CC2)cc1)CCC=C(C)C (some centres unmarked) [Compound 53]		6.25 (≈ 7.92 µM)	0.78 (≈ 0.989 µM)	0.39 to 3.12 (≈ 0.494 to 3.96 µM)	0.78 (≈ 0.989 µM)	0.78 (≈ 0.989 µM)	
C=C[C@](C)(/C=C/c1ccc(OCC(=O)N[C@@H](Cc2c[nH]cn2)C(=O)N[C@@H](Cc2c[nH]cn2)C(=O)OC)cc1)CCC=C(C)C [Compound 55]		> 100	12.5 (≈ 20.7 µM)		12.5 (≈ 20.7 µM)	12.5 (≈ 20.7 µM)	
C=C[C@](C)(/C=C/c1ccc(OCC(=O)N[C@@H](CCCNC(=N)N)C(=O)N[C@@H](CCCNC(=N)N)C(=O)N2CCN(c3ccc(N4C[C@H](CNC(C)=O)OC4=O)cc3F)CC2)cc1)CCC=C(C)C [Compound 59]	1.56 to 3.12 (≈ 1.65 to 3.31 µM)	1.56 (≈ 1.65 µM)	0.78 (≈ 0.825 µM)	0.39 to 3.12 (≈ 0.413 to 3.31 µM)	0.78 (≈ 0.825 µM)	0.78 (≈ 0.825 µM)	
